Experimental data: ChEMBL document CHEMBL3132769, “Fragment growing to retain or alter the selectivity of anchored kinase hinge-binding fragments” (Medchemcomm, 2014)

Legend:
[1] = molecular target: T1, Aurora kinase A (Homo sapiens) (UniProt O14965); experiment: Inhibition of human full length AurA expressed in baculovirus assessed as substrate phosphorylation using fluorescence-labelled peptides as substrate at 9 uM after 90 mins by microfluidic peptide phosphorylation assay
T1 sequence (whole entry): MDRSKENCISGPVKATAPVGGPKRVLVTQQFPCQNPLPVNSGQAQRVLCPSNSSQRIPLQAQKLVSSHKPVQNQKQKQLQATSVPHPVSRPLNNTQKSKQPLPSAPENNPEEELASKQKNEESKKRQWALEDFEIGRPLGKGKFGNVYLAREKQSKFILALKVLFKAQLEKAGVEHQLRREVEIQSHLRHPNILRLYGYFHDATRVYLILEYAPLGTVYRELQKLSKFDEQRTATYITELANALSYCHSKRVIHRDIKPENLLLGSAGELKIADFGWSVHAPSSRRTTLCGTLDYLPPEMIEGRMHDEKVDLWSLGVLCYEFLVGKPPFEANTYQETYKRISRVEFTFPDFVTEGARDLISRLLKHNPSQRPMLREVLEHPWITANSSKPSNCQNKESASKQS

[2] = molecular target: Fibroblast growth factor receptor 3 (Homo sapiens) (UniProt P22607); experiment: Inhibition of human FGFR3 catalytic domain expressed in baculovirus assessed as substrate phosphorylation using fluorescence-labelled peptides as substrate at 95 uM after 90 mins by microfluidic peptide phosphorylation assay
Fibroblast growth factor receptor 3 (Homo sapiens), sequence (P22607 23-806 limits assumed): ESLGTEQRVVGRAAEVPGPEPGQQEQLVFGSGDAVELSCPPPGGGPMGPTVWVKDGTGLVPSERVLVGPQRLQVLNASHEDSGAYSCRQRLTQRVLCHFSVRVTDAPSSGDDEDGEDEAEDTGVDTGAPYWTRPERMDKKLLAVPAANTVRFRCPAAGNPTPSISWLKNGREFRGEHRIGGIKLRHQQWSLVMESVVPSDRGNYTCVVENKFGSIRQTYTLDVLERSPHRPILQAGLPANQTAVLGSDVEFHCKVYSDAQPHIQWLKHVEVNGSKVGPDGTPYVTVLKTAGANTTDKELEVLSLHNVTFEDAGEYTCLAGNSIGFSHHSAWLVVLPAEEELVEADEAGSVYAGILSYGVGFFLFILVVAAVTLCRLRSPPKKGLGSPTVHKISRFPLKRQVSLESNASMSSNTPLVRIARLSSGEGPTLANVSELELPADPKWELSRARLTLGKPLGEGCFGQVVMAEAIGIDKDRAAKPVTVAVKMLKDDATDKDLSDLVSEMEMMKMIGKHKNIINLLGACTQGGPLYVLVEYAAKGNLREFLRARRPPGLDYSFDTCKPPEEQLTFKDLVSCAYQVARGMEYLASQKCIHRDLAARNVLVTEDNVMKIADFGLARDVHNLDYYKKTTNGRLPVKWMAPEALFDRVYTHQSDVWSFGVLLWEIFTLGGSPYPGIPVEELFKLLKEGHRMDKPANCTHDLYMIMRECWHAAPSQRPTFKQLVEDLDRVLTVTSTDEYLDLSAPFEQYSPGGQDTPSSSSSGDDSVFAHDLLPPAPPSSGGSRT

[3] = molecular target: Serine/threonine-protein kinase MARK2 (Homo sapiens) (UniProt Q7KZI7); experiment: Inhibition of human full length MARK2 expressed in baculovirus assessed as substrate phosphorylation using fluorescence-labelled peptides as substrate at 95 uM after 90 mins by microfluidic peptide phosphorylation assay
Serine/threonine-protein kinase MARK2 (Homo sapiens), sequence (Q7KZI7 whole entry, the tested form may be a part): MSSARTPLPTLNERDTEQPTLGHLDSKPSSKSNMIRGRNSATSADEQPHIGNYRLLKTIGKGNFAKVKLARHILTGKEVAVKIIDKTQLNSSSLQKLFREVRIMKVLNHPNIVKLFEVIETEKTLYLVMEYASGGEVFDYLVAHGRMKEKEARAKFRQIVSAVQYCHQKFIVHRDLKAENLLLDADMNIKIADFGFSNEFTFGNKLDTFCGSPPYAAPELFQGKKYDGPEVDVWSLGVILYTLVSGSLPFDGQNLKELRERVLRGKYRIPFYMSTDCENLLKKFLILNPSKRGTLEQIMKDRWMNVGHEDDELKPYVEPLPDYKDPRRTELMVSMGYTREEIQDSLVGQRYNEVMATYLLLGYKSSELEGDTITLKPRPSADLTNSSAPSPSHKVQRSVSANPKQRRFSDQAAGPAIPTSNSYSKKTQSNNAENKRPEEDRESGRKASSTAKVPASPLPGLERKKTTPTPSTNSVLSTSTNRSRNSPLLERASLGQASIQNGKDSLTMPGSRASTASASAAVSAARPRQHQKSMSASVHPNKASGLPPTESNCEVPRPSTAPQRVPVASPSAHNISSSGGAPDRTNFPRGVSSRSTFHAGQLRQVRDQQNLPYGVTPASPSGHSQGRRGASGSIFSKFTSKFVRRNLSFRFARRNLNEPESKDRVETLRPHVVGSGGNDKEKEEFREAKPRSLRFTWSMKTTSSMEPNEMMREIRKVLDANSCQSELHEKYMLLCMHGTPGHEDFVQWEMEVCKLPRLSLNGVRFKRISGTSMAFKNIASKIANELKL

[4] = molecular target: Calcium/calmodulin-dependent protein kinase type II subunit beta (Homo sapiens) (UniProt Q13554); experiment: Inhibition of human CAMK2 beta catalytic domain expressed in baculovirus assessed as substrate phosphorylation using fluorescence-labelled peptides as substrate at 0.06 uM after 90 mins by microfluidic peptide phosphorylation assay
Calcium/calmodulin-dependent protein kinase type II subunit beta (Homo sapiens), sequence (Q13554 whole entry, the tested form may be a part): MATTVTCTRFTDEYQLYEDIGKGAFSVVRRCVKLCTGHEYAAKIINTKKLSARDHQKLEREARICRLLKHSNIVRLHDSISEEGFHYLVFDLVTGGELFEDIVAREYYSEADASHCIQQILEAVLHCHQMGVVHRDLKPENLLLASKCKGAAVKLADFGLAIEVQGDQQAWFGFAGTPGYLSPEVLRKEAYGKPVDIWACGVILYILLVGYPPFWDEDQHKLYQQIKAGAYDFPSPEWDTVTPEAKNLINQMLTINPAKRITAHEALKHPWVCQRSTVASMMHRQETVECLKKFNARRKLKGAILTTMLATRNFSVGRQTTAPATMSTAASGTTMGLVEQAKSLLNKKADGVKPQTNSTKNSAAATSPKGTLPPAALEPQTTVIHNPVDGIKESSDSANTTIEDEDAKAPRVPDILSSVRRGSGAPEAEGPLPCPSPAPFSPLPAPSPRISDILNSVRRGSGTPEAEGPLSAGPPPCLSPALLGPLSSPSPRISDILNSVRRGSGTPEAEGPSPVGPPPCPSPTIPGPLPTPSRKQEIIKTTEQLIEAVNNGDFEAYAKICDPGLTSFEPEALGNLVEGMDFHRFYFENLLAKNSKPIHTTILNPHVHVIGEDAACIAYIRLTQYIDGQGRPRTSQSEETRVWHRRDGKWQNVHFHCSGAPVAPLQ

[5] = molecular target: T2, Serine/threonine-protein kinase BRSK1 (Homo sapiens) (UniProt Q8TDC3); experiment: Inhibition of human full length BRSK1 expressed in baculovirus assessed as substrate phosphorylation using fluorescence-labelled peptides as substrate at 0.1 uM after 90 mins by microfluidic peptide phosphorylation assay
T2 sequence (whole entry): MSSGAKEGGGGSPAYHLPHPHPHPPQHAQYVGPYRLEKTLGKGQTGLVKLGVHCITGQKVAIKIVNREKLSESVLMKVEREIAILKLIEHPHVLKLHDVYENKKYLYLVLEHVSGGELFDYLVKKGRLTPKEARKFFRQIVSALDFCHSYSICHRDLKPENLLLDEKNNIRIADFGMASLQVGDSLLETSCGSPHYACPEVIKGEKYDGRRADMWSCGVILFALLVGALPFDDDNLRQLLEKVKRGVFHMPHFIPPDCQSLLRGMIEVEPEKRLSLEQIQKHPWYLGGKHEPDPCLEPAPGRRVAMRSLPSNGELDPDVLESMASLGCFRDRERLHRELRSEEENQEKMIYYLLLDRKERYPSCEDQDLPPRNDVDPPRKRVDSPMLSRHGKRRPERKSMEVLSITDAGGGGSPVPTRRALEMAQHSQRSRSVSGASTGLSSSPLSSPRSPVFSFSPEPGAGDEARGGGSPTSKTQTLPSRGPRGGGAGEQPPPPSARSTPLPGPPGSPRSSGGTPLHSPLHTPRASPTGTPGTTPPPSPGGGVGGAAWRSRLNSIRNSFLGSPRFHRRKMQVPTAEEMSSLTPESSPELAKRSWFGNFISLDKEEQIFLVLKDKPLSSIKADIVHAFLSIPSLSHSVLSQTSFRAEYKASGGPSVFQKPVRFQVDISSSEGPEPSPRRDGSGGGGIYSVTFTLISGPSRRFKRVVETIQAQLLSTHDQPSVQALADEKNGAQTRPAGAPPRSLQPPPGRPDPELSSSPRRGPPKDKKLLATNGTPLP

[6] = molecular target: Ribosomal protein S6 kinase alpha-3 (Homo sapiens) (UniProt P51812); experiment: Inhibition of human full length RSK2 expressed in baculovirus assessed as substrate phosphorylation using fluorescence-labelled peptides as substrate at 0.1 uM after 90 mins by microfluidic peptide phosphorylation assay
[7] = molecular target: Ribosomal protein S6 kinase alpha-2 (Homo sapiens) (UniProt Q15349); experiment: Inhibition of human full length RSK3 expressed in baculovirus assessed as substrate phosphorylation using fluorescence-labelled peptides as substrate at 420 uM after 90 mins by microfluidic peptide phosphorylation assay
Ribosomal protein S6 kinase alpha-2 (Homo sapiens), sequence (Q15349 whole entry): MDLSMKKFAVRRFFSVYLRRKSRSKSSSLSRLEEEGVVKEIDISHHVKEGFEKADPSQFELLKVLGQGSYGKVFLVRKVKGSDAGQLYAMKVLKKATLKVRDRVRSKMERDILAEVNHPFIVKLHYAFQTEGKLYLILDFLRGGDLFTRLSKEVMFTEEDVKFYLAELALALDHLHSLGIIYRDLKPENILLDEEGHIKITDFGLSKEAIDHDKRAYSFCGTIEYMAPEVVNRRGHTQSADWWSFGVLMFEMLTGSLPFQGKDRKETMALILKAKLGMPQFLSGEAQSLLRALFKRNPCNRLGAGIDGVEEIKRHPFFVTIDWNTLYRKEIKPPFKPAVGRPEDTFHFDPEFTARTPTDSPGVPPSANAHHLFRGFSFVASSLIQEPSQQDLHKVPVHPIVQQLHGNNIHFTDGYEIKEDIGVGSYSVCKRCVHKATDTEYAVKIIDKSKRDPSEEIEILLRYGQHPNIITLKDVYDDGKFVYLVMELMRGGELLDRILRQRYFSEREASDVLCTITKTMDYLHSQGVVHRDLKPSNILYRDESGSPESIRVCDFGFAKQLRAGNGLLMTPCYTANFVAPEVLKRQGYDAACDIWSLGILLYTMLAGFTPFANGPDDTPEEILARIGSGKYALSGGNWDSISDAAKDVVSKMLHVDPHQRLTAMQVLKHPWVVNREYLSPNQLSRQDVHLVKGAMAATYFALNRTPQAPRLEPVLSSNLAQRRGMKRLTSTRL

[8] = molecular target: Serine/threonine-protein kinase MARK1 (Homo sapiens) (UniProt Q9P0L2); experiment: Inhibition of human full length MARK1 expressed in baculovirus assessed as substrate phosphorylation using fluorescence-labelled peptides as substrate at 0.2 uM after 90 mins by microfluidic peptide phosphorylation assay
Serine/threonine-protein kinase MARK1 (Homo sapiens), sequence (Q9P0L2 whole entry, looked up): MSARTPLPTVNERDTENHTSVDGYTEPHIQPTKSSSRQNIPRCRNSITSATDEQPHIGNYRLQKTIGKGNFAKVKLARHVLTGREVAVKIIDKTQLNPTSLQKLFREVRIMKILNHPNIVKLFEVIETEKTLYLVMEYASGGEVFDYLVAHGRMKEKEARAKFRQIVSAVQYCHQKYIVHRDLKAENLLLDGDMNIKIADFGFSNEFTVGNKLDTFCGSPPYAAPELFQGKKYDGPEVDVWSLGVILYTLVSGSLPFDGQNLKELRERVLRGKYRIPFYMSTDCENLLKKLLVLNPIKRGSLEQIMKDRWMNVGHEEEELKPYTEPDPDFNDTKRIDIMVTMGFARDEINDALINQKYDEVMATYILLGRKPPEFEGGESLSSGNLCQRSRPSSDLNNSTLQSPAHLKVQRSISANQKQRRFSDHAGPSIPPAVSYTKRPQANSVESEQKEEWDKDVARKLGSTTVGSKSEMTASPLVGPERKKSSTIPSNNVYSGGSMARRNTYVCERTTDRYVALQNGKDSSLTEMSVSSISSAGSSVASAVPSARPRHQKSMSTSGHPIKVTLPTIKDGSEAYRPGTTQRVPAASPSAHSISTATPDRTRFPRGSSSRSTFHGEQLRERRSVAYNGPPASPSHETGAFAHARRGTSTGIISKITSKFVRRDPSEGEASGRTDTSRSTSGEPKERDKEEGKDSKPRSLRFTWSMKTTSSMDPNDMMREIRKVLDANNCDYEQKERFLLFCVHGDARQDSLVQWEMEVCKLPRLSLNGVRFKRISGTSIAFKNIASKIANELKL

[9] = molecular target: Tyrosine-protein kinase Lyn (Homo sapiens) (UniProt P07948); experiment: Inhibition of human full length LYN expressed in baculovirus assessed as substrate phosphorylation using fluorescence-labelled peptides as substrate at 0.2 uM after 90 mins by microfluidic peptide phosphorylation assay
[10] = system: Tyrosine-protein kinase ABL1 (Homo sapiens), P00519 [Q252H]; experiment: Inhibition of human truncated ABL Q252H mutant expressed in baculovirus assessed as substrate phosphorylation using fluorescence-labelled peptides as substrate at 0.2 uM after 90 mins by microfluidic peptide phosphorylation assay
[11] = molecular target: Proto-oncogene tyrosine-protein kinase Src (Homo sapiens) (UniProt P12931); experiment: Inhibition of human full length SRC expressed in baculovirus assessed as substrate phosphorylation using fluorescence-labelled peptides as substrate at 0.2 uM after 90 mins by microfluidic peptide phosphorylation assay
Proto-oncogene tyrosine-protein kinase Src (Homo sapiens), sequence (P12931 2-536 limits assumed): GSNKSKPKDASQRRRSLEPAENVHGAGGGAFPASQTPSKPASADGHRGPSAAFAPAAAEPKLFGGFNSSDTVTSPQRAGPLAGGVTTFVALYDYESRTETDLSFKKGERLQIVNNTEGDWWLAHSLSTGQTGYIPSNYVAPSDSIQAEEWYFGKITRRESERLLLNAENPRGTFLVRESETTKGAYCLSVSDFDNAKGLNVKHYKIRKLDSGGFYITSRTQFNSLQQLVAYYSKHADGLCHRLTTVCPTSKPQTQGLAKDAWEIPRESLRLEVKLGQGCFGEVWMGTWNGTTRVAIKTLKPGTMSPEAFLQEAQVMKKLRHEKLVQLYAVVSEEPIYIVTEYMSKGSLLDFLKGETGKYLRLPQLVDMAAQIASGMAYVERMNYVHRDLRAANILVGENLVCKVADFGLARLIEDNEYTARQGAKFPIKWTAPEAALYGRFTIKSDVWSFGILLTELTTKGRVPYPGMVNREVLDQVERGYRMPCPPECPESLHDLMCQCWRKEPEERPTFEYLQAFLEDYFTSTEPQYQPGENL

[12] = molecular target: T3, Serine/threonine-protein kinase Sgk3 (Homo sapiens) (UniProt Q96BR1); experiment: Inhibition of human full length SGK3 expressed in baculovirus assessed as substrate phosphorylation using fluorescence-labelled peptides as substrate at 8 uM after 90 mins by microfluidic peptide phosphorylation assay
T3 sequence (whole entry): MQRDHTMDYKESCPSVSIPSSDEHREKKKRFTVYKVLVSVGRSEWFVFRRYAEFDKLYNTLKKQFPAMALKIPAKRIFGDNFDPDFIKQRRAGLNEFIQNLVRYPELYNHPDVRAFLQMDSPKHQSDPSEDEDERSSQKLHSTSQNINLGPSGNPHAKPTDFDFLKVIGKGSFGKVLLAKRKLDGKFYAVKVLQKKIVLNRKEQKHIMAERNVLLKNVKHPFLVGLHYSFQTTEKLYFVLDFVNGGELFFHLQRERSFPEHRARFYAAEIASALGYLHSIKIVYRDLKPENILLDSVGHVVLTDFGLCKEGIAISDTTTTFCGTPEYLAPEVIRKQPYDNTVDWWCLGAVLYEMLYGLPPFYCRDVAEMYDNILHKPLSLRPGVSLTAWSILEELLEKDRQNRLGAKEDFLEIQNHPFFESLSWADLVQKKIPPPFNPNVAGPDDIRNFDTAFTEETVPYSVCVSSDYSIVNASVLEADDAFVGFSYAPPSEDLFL

[13] = molecular target: Ribosomal protein S6 kinase alpha-4 (Homo sapiens) (UniProt O75676); experiment: Inhibition of human full length MSK2 expressed in baculovirus assessed as substrate phosphorylation using fluorescence-labelled peptides as substrate at 1000 uM after 90 mins by microfluidic peptide phosphorylation assay
Ribosomal protein S6 kinase alpha-4 (Homo sapiens), sequence (O75676 whole entry, looked up): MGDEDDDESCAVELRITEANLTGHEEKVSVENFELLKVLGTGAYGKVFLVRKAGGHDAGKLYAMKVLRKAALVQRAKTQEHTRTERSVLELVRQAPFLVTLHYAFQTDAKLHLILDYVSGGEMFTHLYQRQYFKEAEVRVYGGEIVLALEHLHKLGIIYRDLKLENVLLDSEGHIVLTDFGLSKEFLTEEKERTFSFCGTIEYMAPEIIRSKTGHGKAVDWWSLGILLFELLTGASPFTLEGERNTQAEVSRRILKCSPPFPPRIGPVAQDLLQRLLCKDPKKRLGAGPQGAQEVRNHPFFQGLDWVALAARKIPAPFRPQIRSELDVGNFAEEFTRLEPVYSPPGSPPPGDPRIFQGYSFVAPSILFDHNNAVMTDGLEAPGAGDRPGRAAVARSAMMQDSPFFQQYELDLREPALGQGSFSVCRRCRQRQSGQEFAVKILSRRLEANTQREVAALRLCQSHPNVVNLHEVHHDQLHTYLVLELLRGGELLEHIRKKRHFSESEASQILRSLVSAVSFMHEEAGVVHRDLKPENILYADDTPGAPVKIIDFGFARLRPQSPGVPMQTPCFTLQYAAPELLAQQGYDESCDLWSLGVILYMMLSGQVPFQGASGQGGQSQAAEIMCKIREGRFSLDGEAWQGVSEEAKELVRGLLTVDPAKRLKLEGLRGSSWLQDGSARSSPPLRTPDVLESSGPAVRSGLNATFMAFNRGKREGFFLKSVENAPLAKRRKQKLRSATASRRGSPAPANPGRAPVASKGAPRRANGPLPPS

## NCC1CN(c2ncnc3[nH]c4cnccc4c23)CCO1 (stereo not drawn)
[1]
  inhibition: 23.5%

## NCCc1ccc(-c2ncnc3[nH]cnc23)cc1
[2]
  inhibition: 27%
[3]
  inhibition: 67%

## NC1(Cc2ccc(Cl)cc2)CCN(c2ncnc3[nH]ccc23)CC1
[4]
  inhibition: 0%

## C[C@H](CN(C)C)Oc1nc(Nc2cc3cccc(Cl)c3cn2)cnc1C#N
[5]
  inhibition: 16.5%
[6]
  inhibition: 59.5%

## c1nc(N2CCOCC2)c2nc[nH]c2n1
[7]
  inhibition: 98%

## Clc1ccc(C2(c3ccc(-c4ncnc5[nH]cnc45)cc3)CCNCC2)cc1
[8]
  inhibition: 51%
[9]
  inhibition: 18%
[10]
  inhibition: 0%
[11]
  inhibition: 24.5%

## NCC1CCN(c2ncnc3[nH]ccc23)CC1
[12]
  inhibition: 83%

## c1cnc2[nH]ccc2c1
[13]
  inhibition: 81%
